Values quoted from earlier work in patent US20050232866A1, “Biochemically-activated contrast agents for magnetic resonance imaging” (Alerion Biomedical Inc., priority 2004, published 2005).

Columns and labels:
[1] = Gd(III) chelate
[2] = physiological pH

SMILES | stability constant (formation constant) logK [1] | dissociation kinetics [2]
O=C([O-])CN(CCN(CC(=O)[O-])CC(=O)O)CCN(CC(=O)[O-])CC(=O)O.[Gd+3] [Gd(DTPA)] | 22.4 | –
O=C([O-])CN1CCN(CC(=O)[O-])CCN(CC(=O)O)CCN(CC(=O)[O-])CC1.[Gd+3] [Gd-DOTA] | 28.5 | very slow dissociation kinetics
